Test results taken from PMC11500415, “Chemical inhibition of stomatal differentiation by perturbation of the master-regulatory bHLH heterodimer via an ACT-Like domain” (Nature Communications, 2024).
Several values for one entry are separate records, joined by “and”; a condition that tells them apart may be missing. Equal entries are not always repeated. Where two headings read alike, the source gives them in different places.

Biological target: T1, MUTE_ACTLE162A_E163A (Arabidopsis thaliana, UniProt Q9M8K6, E162A/E163A)
T1 construct: MUTE-ACTL (114-202); made in house; host or cells: E. coli BL21
T1 sequence (Q9M8K6 114-202 E162A/E163A): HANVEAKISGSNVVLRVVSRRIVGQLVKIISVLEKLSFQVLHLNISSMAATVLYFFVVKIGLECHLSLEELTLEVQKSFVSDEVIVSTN
Assay: BLI direct binding
Design: species or system A. thaliana
Settings: for koff: read-out: kdis(1/s), MUTE_E162A_E163A on Anti-GST sensor
Excerpt: A. thaliana SCRM (1-494), ΔNSPCH (98-364), MUTE (1-202), ΔNFAMA (190-414), MUTEΔC (1-114), MUTER133A_R134A, MUTEE162A_E163A, MUTER133A_R134A_E162A_E163A, SCRM-ACTL (405-494), MUTE-ACTL (114-202), SPCH-ACTL (285-364), FAMA-ACTL (306-414), MUTE_ACTLR133A_R134A, MUTE_ACTLE162A_E163A, MUTE_ACTLR133A_R134A_E162A_E163A were cloned into pGEX-4T-1 vector with an N-terminal GST tag and a thrombin cleavage sequence. For protein expression, the constructs were transformed into E. coli strain BL21. For each transformant, a single colony was selected and incubated in 10 ml LB liquid media. The overnight-incubated E. coli suspensions were transferred to 1 L LB medium and incubated at 37 °C for around 2 h until the OD600 reached 0.4–0.6. The isopropyl β-D-1-thiogalactopyranoside ([…] of final concentration) was added to the cultures and the strains were incubated at 22 °C for a further 18 h. GST-fused proteins were purified using glutathione agarose resin. The soluble portion of the cell lysate was loaded onto a GST-Sepharose column. Nonspecifically bound proteins were removed by washing the column with 20 mM Tris pH 8.0, 200 mM NaCl. The bound GST-fused protein was eluted with 10 mm glutathione and 20 mM Tris pH 8.0, 200 mM NaCl. The GST-fused proteins were exchanged with phosphate-buffered saline buffer, and then the solution was treated with 50 μg of thrombin for 10–12 h at 16 ^οC. The GST portion of the protein was cleaved during thrombin digestion, and then the whole solution was reloaded onto the glutathione S-transferase column to obtain pure protein. The purified proteins were further purified by gel filtration on a Superdex-200 (GE) column using fast protein liquid chromatography and phosphate buffer (pH 7.2) as the eluent. The purity of the protein was checked by SDS-PAGE. For detailed lists of oligo DNA and plasmid information, see Supplementary Tables 5, 6, respectively.
The binding affinities of SCRM to MUTE / MUTER133A_R134A / MUTEE162A_E163A / MUTER133A_R134A_E162A_E163A in presence and absence of Stomidazolone (3) and its analogues (AYSJ1059 (5) and AYSJ1061 (6)), and Stomidazolone / AYSJ1059 / AYSJ1061 interactions with GST-tagged SCRM, MUTE, SPCH, FAMA, MUTE ΔACTL, MUTE_ACTL, SCRM_ACTL, SPCH_ACTL and FAMA_ACTL, MUTER133A_134A, MUTEE162A_E163A, MUTER133A_R134A_E162A_E163A were measured using the Octet Red96 system (ForteBio, Pall Life Sciences) following the manufacturer’s protocols. The optical probes coated with anti-GST were first loaded with 500 nM GST tagged proteins before kinetic binding analyses. The experiment was performed in 96-well plates maintained at 30 °C. Each well was loaded with 200 μL reaction volume for the experiment. The binding buffer used in these experiments contained 1× PBS supplemented with 2% DMSO, 0.02% Tween20. The concentrations of the Stomidazolone as the analyte in the binding buffer were 100, 50, 25, 12.5, 6.25, 3.12, and 1.56 μM. There was no binding of the analytes to the unloaded probes as shown by the control wells. Binding kinetics to all seven concentrations of the analytes were measured simultaneously using default parameters on the instrument. The data were analyzed using the Octet data analysis software. The association and dissociation curves were fit with the 1:1 homogeneous ligand model. The kobs (observed rate constant) values were used to calculate Kd, with steady-state analysis of the direct binding. See Supplementary Table 3 for details.

[1] = MUTE_E162A_E163A on Anti-GST sensor, Stomid 3.12 µM, rep-1, rep-2
[2] = MUTE_E162A_E163A on Anti-GST sensor, Stomid 6.25 µM, rep-1, rep-2
[3] = MUTE_E162A_E163A on Anti-GST sensor, Stomid 12.5 µM, rep-1, rep-2
[4] = MUTE_E162A_E163A on Anti-GST sensor, Stomid 25 µM, rep-1, rep-2
[5] = MUTE_E162A_E163A on Anti-GST sensor, Stomid 50 µM, rep-1, rep-2
[6] = MUTE_E162A_E163A on Anti-GST sensor, Stomid 100 µM, rep-1, rep-2
[7] = MUTE_E162A_E163A on Anti-GST sensor, Stomid 200 µM, rep-1, rep-2

## O=C1C(c2ccccc2)=NC(NS(=O)(=O)c2ccccc2)(c2ccccc2)N1S(=O)(=O)c1ccccc1 (stereo not drawn) [Stomidazolone]
BLI steady state, MUTE_ACTL E162A_E163A, read-out: KD (SS)
  Kd: 125 ± 12 µM
BLI, MUTE_ACTL E162A_E163A, read-out: KD
  Kd: 88.3 ± 5.5 µM
[1]
  RMax: 0.032 and 0.02
  Response: 0.0312 and 0.0195
MUTE_E162A_E163A on Anti-GST sensor, Stomid 3.12 µM, rep-1, rep-2, read-out: KD
  Kd: 86.2 µM
[2]
  RMax: 0.055 and 0.045
  Req/Rmax(%): 86.2% and 99.9%
  Response: 0.053 and 0.041
  kdis: 0.25 s⁻¹
  kon: 2770 M⁻¹ s⁻¹
MUTE_E162A_E163A on Anti-GST sensor, Stomid 6.25 µM, rep-1, rep-2, read-out: KD
  Kd: 84.8 µM and 90.2 µM
[3]
  RMax: 0.07 and 0.08
  Req/Rmax(%): 86.2% and 95.1%
  Response: 0.065 and 0.078
  kobs: 0.00218 s⁻¹ and 0.00344 s⁻¹
  kon: 2790 M⁻¹ s⁻¹
MUTE_E162A_E163A on Anti-GST sensor, Stomid 12.5 µM, rep-1, rep-2, read-out: KD
  Kd: 85.4 µM and 87.9 µM
[4]
  Req/Rmax(%): 83.8% and 88.2%
  kdis: 0.251 s⁻¹
  kobs: 0.0028 s⁻¹ and 0.00329 s⁻¹
  kon: 2870 M⁻¹ s⁻¹
MUTE_E162A_E163A on Anti-GST sensor, Stomid 25 µM, rep-1, rep-2, read-out: KD
  Kd: 87.7 µM and 87.3 µM
[5]
  RMax: 0.145 and 0.18
  Req/Rmax(%): 89.7% and 82.4%
  Response: 0.141 and 0.171
  kobs: 0.00431 s⁻¹ and 0.00272 s⁻¹
  kon: 2770 M⁻¹ s⁻¹
MUTE_E162A_E163A on Anti-GST sensor, Stomid 50 µM, rep-1, rep-2, read-out: KD
  Kd: 87.7 µM and 89 µM
[6]
  RMax: 0.256 and 0.23
  Req/Rmax(%): 98.6% and 97.1%
  Response: 0.254 and 0.2296
  kdis: 0.248 s⁻¹
  kobs: 0.0129 s⁻¹ and 0.00842 s⁻¹
  kon: 2860 M⁻¹ s⁻¹
MUTE_E162A_E163A on Anti-GST sensor, Stomid 100 µM, rep-1, rep-2, read-out: KD
  Kd: 88.7 µM and 86.6 µM
[7]
  RMax: 0.275 and 0.3
  Req/Rmax(%): 100%
  Response: 0.272 and 0.292
  kobs: 0.0343 s⁻¹
MUTE_E162A_E163A on Anti-GST sensor, Stomid 200 µM, rep-1, rep-2, read-out: KD
  Kd: 89.2 µM
Stomid 3.12 µM, rep-1, rep-2
  koff: 0.243 s⁻¹
Stomid 6.25 µM, rep-1, rep-2
  koff: 0.242 s⁻¹
Stomid 12.5 µM, rep-1, rep-2
  koff: 0.245 s⁻¹
Stomid 25 µM, rep-1, rep-2
  koff: 0.246 s⁻¹
Stomid 50 µM, rep-1, rep-2
  koff: 0.246 s⁻¹
Stomid 100 µM, rep-1, rep-2
  koff: 0.247 s⁻¹
Stomid 200 µM, rep-1, rep-2
  koff: 0.25 s⁻¹
read-out: kon(1/Ms), MUTE_E162A_E163A on Anti-GST sensor, Stomid 3.12 µM, rep-1, rep-2
  kon: 2830 M⁻¹ s⁻¹
read-out: kon(1/Ms), MUTE_E162A_E163A on Anti-GST sensor, Stomid 6.25 µM, rep-1, rep-2
  kon: 2850 M⁻¹ s⁻¹
read-out: kon(1/Ms), MUTE_E162A_E163A on Anti-GST sensor, Stomid 12.5 µM, rep-1, rep-2
  kon: 2870 M⁻¹ s⁻¹
read-out: kon(1/Ms), MUTE_E162A_E163A on Anti-GST sensor, Stomid 25 µM, rep-1, rep-2
  kon: 2800 M⁻¹ s⁻¹
read-out: kon(1/Ms), MUTE_E162A_E163A on Anti-GST sensor, Stomid 50 µM, rep-1, rep-2
  kon: 2810 M⁻¹ s⁻¹
read-out: kon(1/Ms), MUTE_E162A_E163A on Anti-GST sensor, Stomid 100 µM, rep-1, rep-2
  kon: 2780 M⁻¹ s⁻¹
read-out: kon(1/Ms), MUTE_E162A_E163A on Anti-GST sensor, Stomid 200 µM, rep-1, rep-2
  kon: 2800 M⁻¹ s⁻¹
